# Entries after “also recorded” stand apart in the source; their conditions may differ.
# Experiments:
# [1] = Compatibility study of minocycline hydrochloride with excipients (visual inspection); type: physicochemical; details: for Compatibility with MCH: hydrophilic solvents: MCH: excipient 1:250, suspension at 25° C. and 40° C. for maximum of sixty days; for Compatibility with Minocycline HCl: summary, tested after the storage for up to 3 weeks; for Compatibility with MCH: oily emollients and waxes: MCH:excipient 1:250 for oily emollients and 1:50 for waxes, max sixty days; for Compatibility with MCH: oily emollients and waxes / Compatibility with MCH: surfactants: 25° C. and 40° C.; for Compatibility with Minocycline HCl (discussion of compatibility studies): excipient named as label, storage up to 3 weeks; for Compatibility with MCH: surfactants: MCH:excipient 1:50, surfactant solubilized in mineral oil; for Effect of added antioxidant on MCH degradation: MCH suspensions comprising water or non-compatible excipients; for Effect of added anti-oxidant on oxidation of Minocycline HCl: waterless medium of propylene glycol and PEG 200
# Procedure: (§1) Active agent is incubated with various excipients individually at one or more temperatures and at different ratios of active agent to a single excipient for a certain fixed period or to the point where degradation was suspected. […] Visual inspection is a criterion for indication of compatibility. Any change of color indicates oxidation or degradation. […] Tests are also carried out with combinations of excipients.
# [2] = Doxycycline Hyclate compatibility test; type: physicochemical; details: for Visual inspection after the storage at 50° C. / Visual inspection after the storage at 25° C. / Visual inspection after the storage at 40° C.: stored two weeks; for Effect of added anti-oxidant on oxidation of Doxycycline Hyclate: waterless medium of propylene glycol and PEG 200
# Procedure: as §1
# (§2) A similar compatibility study was conducted for Doxycycline Hyclate and Doxycycline Monohydrate.
# (§3) Different compositions of hydrophilic and hydrophobic solvents containing Doxycycline Hyclate (Set I and Set II) and Doxycycline Monohydrate (Set III) were prepared by weighing the antibiotic in a glass vial and shaking overnight with each solvent investigated.
# Group II included Doxycycline Hyclate mixed with various vehicles with addition of antioxidants like alpha tocopherol, butylated hydroxytoluene (BHT), and ascorbic acid.
# [3] = Doxycycline Monohydrate compatibility test; type: physicochemical; details: for Visual inspection after the storage at 25° C. / Visual inspection after the storage at 50° C. / Visual inspection after the storage at 40° C. / Visual inspection at T-0: mixture of 1.04% w/w Doxycycline Monohydrate with the ingredient; for Visual inspection after the storage at 25° C. / Visual inspection after the storage at 50° C. / Visual inspection after the storage at 40° C.: stored two weeks; for Visual inspection at T-0: two weeks study; for Effect of added anti-oxidant on oxidation of Doxycycline Monohydrate: waterless medium of propylene glycol and PEG 200
# Procedure: Active agent is incubated with various excipients individually at one or more temperatures and at different ratios of active agent to a single excipient for a certain fixed period or to the point where degradation was suspected. The period can be for example 3 or 7 or 14 or 21 or 28 days or longer. Visual inspection is a criterion for indication of compatibility. Any change of color indicates oxidation or degradation. […] Tests are also carried out with combinations of excipients.
# as §2, §3
# A similar compatibility test was performed on another form of Doxycycline—Doxycycline Monohydrate.
# mouse = details: cited from earlier work
# [4] = tested on: patients treated with EGFR inhibitors; details: patients treated with the EGFR inhibitor (Erlotinib 150 mg QD); cited from earlier work
# [5] = tested on: EGFR inhibitor-induced rash; details: cited from earlier work
# [6] = cited from earlier work
# [7] = MCH:excipient 1:50, 25° C. and 40° C., visual inspection
# [8] = mixture of 1.04% w/w Doxycycline Hyclate with the ingredient
# [9] = summary, tested after the storage for up to 3 weeks
# [10] = mixtures of 1.04% w/w, excipient named as label, storage at 25° C., 40° C. and 50° C. for two weeks, listed as Ethanol 95%
# [11] = mixtures of 1.04% w/w, excipient named as label, storage at 25° C., 40° C. and 50° C. for two weeks, listed as ethanol 95%
# [12] = mixtures of 1.04% w/w, excipient named as label, storage at 25° C., 40° C. and 50° C. for two weeks
compound,measurement,setting,value
CCCCCCCCCCCCCCCCCCCCCCO [Behenyl alcohol],Compatibility with MCH: foam adjuvants,[1]; [7],compatible
OCCCCO [Butylene Glycol],Compatibility with MCH: hydrophilic solvents,[1]; visual inspection,incompatible
same,Compatibility with Minocycline HCl,[1],No
same,Visual inspection after the storage at 50° C.,[2]; [8],Light orange solution
same,Compatibility with Doxycycline Hyclate,[2]; [9],No
same,Visual inspection after the storage at 25° C.,[3],Orange solution
same,Visual inspection after the storage at 50° C.,[3],black solution
same,Compatibility with Doxycycline Monohydrate,[3]; [9],No
CCCCCCCCCCCCCCCCO [Cetyl alcohol],Compatibility with MCH: foam adjuvants,[1]; [7],compatible
C[Si]1(C)O[Si](C)(C)O[Si](C)(C)O[Si](C)(C)O[Si](C)(C)O1 [Cyclomethicone 5 NF],Compatibility with Minocycline HCl,[1],Yes
same,Compatibility with Doxycycline Hyclate,[2]; [9],Yes
same,Compatibility with Doxycycline Monohydrate,[3]; [9],Yes
CCOCCOCCO [Diethylene glycol monoethyl ether],Compatibility with MCH: hydrophilic solvents,[1]; visual inspection,incompatible
CC(C)OC(=O)CCCCC(=O)OC(C)C [Diisopropyl adipate],Compatibility with Minocycline HCl,[1],Yes
same,Compatibility with Doxycycline Hyclate,[2]; [9],Yes
same,Compatibility with Doxycycline Monohydrate,[3]; [9],No
CO[C@H]1CO[C@H]2[C@@H]1OC[C@H]2OC [Dimethyl Isosorbide],Compatibility with MCH: hydrophilic solvents,[1]; visual inspection,incompatible
same,Compatibility with Minocycline HCl,[1],No
same,Visual inspection after the storage at 25° C.,[2]; [8],Yellow solution
same,Visual inspection after the storage at 40° C.,[2]; [8],Brownish orange
same,Visual inspection after the storage at 50° C.,[2]; [8],Orange solution
same,Visual inspection at T-0,"[2]; mixture of 1.04% w/w Doxycycline Hyclate with the ingredient, two weeks study",yellow solution
same,Compatibility with Doxycycline Hyclate,[2]; [9],No
same,Visual inspection after the storage at 25° C.,[3],orange solution
same,Visual inspection after the storage at 40° C.,[3],orange solution
same,Visual inspection after the storage at 50° C.,[3],Orange solution
same,Visual inspection at T-0,[3],yellow solution
same,Compatibility with Doxycycline Monohydrate,[3]; [9],No
C[S+](C)[O-] [Dimethyl Sulfoxide],Compatibility with MCH: hydrophilic solvents,[1]; visual inspection,incompatible
CC(C)OC(=O)CCCCC(=O)OC(C)C [Disopropyl adipate],Compatibility with MCH: oily emollients and waxes,[1]; visual inspection,compatible
"C[C@H]1c2cccc(O)c2C(=O)C2=C(O)[C@]3(O)C(=O)C(C(N)=O)=C(O)[C@@H](N(C)C)[C@@H]3[C@@H](O)[C@@H]21 [Doxycycline, doxycycline]",Oral acute toxicity LD50,mouse,1007 mg/kg
C#Cc1cccc(Nc2ncnc3cc(OCCOC)c(OCCOC)cc23)c1 [Erlotinib],Patients who developed a grade 3 rash,[4],9%
same,Patients who developed a rash in all grades,[4],75%
CCO [Ethanol],Compatibility with MCH: hydrophilic solvents,[1]; visual inspection,incompatible
same,Compatibility with Minocycline HCl (discussion of compatibility studies),[1],changed their colour from yellow to orange
same,Compatibility with Minocycline HCl,[1],No
same,Compatibility with Doxycycline Hyclate,[2]; [10],stability
same,Compatibility with Doxycycline Hyclate,[2]; [11],stable
same,Compatibility with Doxycycline Hyclate,[2]; [9],Yes
same,Visual inspection after the storage at 25° C.,[3],Brown solution
same,Visual inspection after the storage at 40° C.,[3],Brown solution
same,Visual inspection after the storage at 50° C.,[3],Black solution
same,Compatibility with Doxycycline Monohydrate,[3]; [10],changed their colour from yellow to orange
same,Compatibility with Doxycycline Monohydrate,[3]; [11],oxidized
same,Compatibility with Doxycycline Monohydrate,[3]; [9],No
OCC(O)CO [Glycerin],Compatibility with MCH: hydrophilic solvents,[1]; visual inspection,incompatible
same,Compatibility with Minocycline HCl (discussion of compatibility studies),[1],intensive oxidation
same,Compatibility with Minocycline HCl,[1],No
same,Compatibility with Doxycycline Hyclate,[2]; [9],No
same,Compatibility with Doxycycline Monohydrate,[3]; [9],No
CCCCCCCCCCCCCCCCCC(=O)OCC(O)CO (stereo not drawn) [Glyceryl monostearate],Compatibility with MCH: surfactants,[1]; visual inspection,incompatible
CCCCCCCCCCCCCC(=O)OC(C)C [Isopropyl myristate],Compatibility with MCH: oily emollients and waxes,[1]; visual inspection,compatible
CC(C)CCCCCCCCCCCCCCC(=O)O [Isostearic acid],Compatibility with MCH: foam adjuvants,[1]; [7],not compatible
same,Compatibility with Minocycline HCl,[1],No
same,Compatibility with Doxycycline Hyclate,[2]; [9],Yes
CC(C)CCCCCCCCCCCCCCCO [Isostearyl alcohol],Compatibility with MCH: foam adjuvants,[1]; [7],compatible
CC1CCC(C(C)C)C(O)C1 (stereo not drawn) [Menthol],Compatibility with MCH: additives,[1]; [7],compatible
CCCCCCCCCCCCCCO [Myristyl alcohol],Compatibility with MCH: foam adjuvants,[1]; [7],compatible
same,Compatibility with Minocycline HCl,[1],Yes
same,Compatibility with Doxycycline Hyclate,[2]; [9],Yes
CCCCCCCCCCC(CO)CCCCCCCC (stereo not drawn) [Octyl dodecanol],Compatibility with MCH: oily emollients and waxes,[1]; visual inspection,compatible
same,Compatibility with Minocycline HCl (discussion of compatibility studies),[1],full compatibility; also recorded: compatible
same,Compatibility with Minocycline HCl,[1],Yes
same,Compatibility with Doxycycline Hyclate,[2]; [12],incompatibility
same,Compatibility with Doxycycline Hyclate,[2]; [9],No
same,Compatibility with Doxycycline Monohydrate,[3]; [12],incompatibility
same,Compatibility with Doxycycline Monohydrate,[3]; [9],No
CCCCCCCC/C=C\CCCCCCCC(=O)O [Oleic acid],Compatibility with MCH: foam adjuvants,[1]; [7],compatible
CCCCCCCC/C=C\CCCCCCCCO [Oleyl alcohol],Compatibility with MCH: foam adjuvants,[1]; [7],compatible
same,Compatibility with Minocycline HCl,[1],Yes
same,Compatibility with Doxycycline Hyclate,[2]; [9],Yes
CCCCCCCCCCCCCCCC(=O)O [Palmitic acid],Compatibility with MCH: foam adjuvants,[1]; [7],compatible
CC(O)CO (stereo not drawn) [Propylene glycol],Compatibility with MCH: hydrophilic solvents,[1]; visual inspection,incompatible
same,Compatibility with Minocycline HCl,[1],No
same,Compatibility with Doxycycline Hyclate,[2]; [9],No
same,Compatibility with Doxycycline Monohydrate,[3]; [9],No
CCCCCCCCCCCCCCCCCC(=O)O [Stearic acid],Compatibility with MCH: foam adjuvants,[1]; [7],compatible
CCCCCCCCCCCCCCCCCCO [Stearyl alcohol],Compatibility with MCH: foam adjuvants,[1]; [7],compatible
same,Compatibility with Minocycline HCl,[1],Yes
same,Compatibility with Doxycycline Hyclate,[2]; [9],Yes
Cc1c(C)c2c(c(C)c1O)CC[C@@](C)(CCC[C@H](C)CCC[C@H](C)CCCC(C)C)O2 [alpha-tocopherol],Effect of added antioxidant on MCH degradation,[1],did not prevent MCH degradation
same,Effect of added anti-oxidant on oxidation of Minocycline HCl,[1],did not prevent the oxidation
same,Effect of added anti-oxidant on oxidation of Doxycycline Hyclate,[2],did not prevent the oxidation
same,Effect of added anti-oxidant on oxidation of Doxycycline Monohydrate,[3],did not prevent the oxidation
O=C1O[C@H]([C@@H](O)CO)C(O)=C1O [ascorbic acid],Effect of added anti-oxidant on oxidation of Minocycline HCl,[1],did not prevent the oxidation
same,Effect of added anti-oxidant on oxidation of Doxycycline Hyclate,[2],did not prevent the oxidation
same,Effect of added anti-oxidant on oxidation of Doxycycline Monohydrate,[3],did not prevent the oxidation
CC[C@@H]1/C=C(\C)C[C@H](C)C[C@H](OC)[C@H]2O[C@@](O)(C(=O)C(=O)N3CCCC[C@H]3C(=O)O[C@H](/C(C)=C/[C@@H]3CC[C@H](Cl)[C@H](OC)C3)[C@H](C)[C@@H](O)CC1=O)[C@H](C)C[C@@H]2OC [pimecrolimus],Lesion counts on treated side of the face,"[5]; half face study, cetuximab, after 2 weeks",significantly less
CCCOC(=O)c1cc(O)c(O)c(O)c1 [propyl gallate],Effect of added antioxidant on MCH degradation,[1],did not prevent MCH degradation
"CCOC(=O)c1ccc(C#Cc2ccc3c(c2)C(C)(C)CCS3)nc1 [tazarotene, Ethyl 6-[2-(4,4-dimethylthiochroman-6-yl)ethynyl] nicotinate]",Clinical benefit on EGFR inhibitor-induced rash,[5]; cream twice a day,no observed clinical benefit
same,Patients in whom the rash was assessed as more severe,[5]; cream twice a day,10%
O [water],Effect of addition of water on MCH suspended in compatible excipients,[1]; minimal quantities of water (100 μL) added,prompt degradation of MCH
Cyclomethicone,Compatibility with MCH: oily emollients and waxes,[1]; visual inspection,compatible
Doxycycline hyclate,Lipid solubility,[6],high degree
same,Solubility in water,[6],soluble
SPAN 40,Compatibility with MCH: surfactants,[1]; visual inspection,incompatible
SPAN 60,Compatibility with MCH: surfactants,[1]; visual inspection,incompatible
SPAN 80,Compatibility with MCH: surfactants,[1]; visual inspection,incompatible
Sorbitan Monolaurate,Compatibility with Minocycline HCl,[1],No
same,Visual inspection after the storage at 25° C.,[2]; [8],Brown solution
same,Visual inspection after the storage at 40° C.,[2]; [8],Brown solution
same,Visual inspection after the storage at 50° C.,[2]; [8],Black solution
same,Compatibility with Doxycycline Hyclate,[2]; [9],No
same,Visual inspection after the storage at 25° C.,[3],orange solution
same,Visual inspection after the storage at 40° C.,[3],Brown solution
same,Visual inspection after the storage at 50° C.,[3],brown solution
same,Visual inspection at T-0,[3],Brown mixture
same,Compatibility with Doxycycline Monohydrate,[3]; [9],No
Sorbitan Monostearate,Compatibility with Minocycline HCl,[1],Yes
same,Compatibility with Doxycycline Hyclate,[2]; [9],Yes
Sorbitan sesquistearate,Compatibility with MCH: surfactants,[1]; visual inspection,incompatible
